From ChEMBL document CHEMBL3885881, “DrugMatrix”

Species on record: Rattus norvegicus
Test: DrugMatrix - Regimen: Daily Repeat
Assay type: toxicity, organism-based, Sprague-Dawley
Parameters: regimen Daily Repeat, gender Male, age 6-8 weeks
Conditions: in vivo, po, route oral GAVAGE, […]; for ABSOLUTE BASOPHIL / ABSOLUTE EOSINOPHIL / ABSOLUTE LYMPHOCYTE / ABSOLUTE MONOCYTE / ABSOLUTE SEGMENTED NEUTROPHIL / BASOPHIL / EOSINOPHIL / ERYTHROCYTE COUNT / HEMATOCRIT / HEMOGLOBIN / LEUKOCYTE COUNT / LYMPHOCYTE / MEAN CORPUSCULAR HEMOGLOBIN / MEAN CORPUSCULAR HEMOGLOBIN CONCENTRATION / MEAN CORPUSCULAR VOLUME / MONOCYTE / NEUTROPHIL / NUCLEATED RED BLOOD CELLS / PLATELET COUNT: tissue Blood; for ALANINE AMINOTRANSFERASE / ALBUMIN / ALKALINE PHOSPHATASE / ASPARTATE AMINOTRANSFERASE / BLOOD UREA NITROGEN / CARBON DIOXIDE / CHLORIDE / CHOLESTEROL / CREATINE PHOSPHOKINASE / CREATININE / GLUCOSE / LACTATE DEHYDROGENASE / LIPASE / PHOSPHORUS / POTASSIUM / SODIUM / TOTAL BILIRUBIN / TOTAL PROTEIN / URIC ACID: tissue Plasma
[1] = 0 mg/kg, 72 h, dose level Control, time 3 day
[2] = 0 mg/kg, 120 h, dose level Control, time 5 day
[3] = 5 mg/kg, 72 h, dose level Low, time 3 day

O=C(Nc1ccc(Cl)c(Cl)c1)c1cc(Cl)cc(Cl)c1O [3,3',4',5-TETRACHLOROSALICYLANILIDE]
ABSOLUTE BASOPHIL [1]: 0 CELLS/uL
ABSOLUTE EOSINOPHIL [1]: 0 CELLS/uL
ABSOLUTE LYMPHOCYTE [1]: 11091.17 CELLS/uL
ABSOLUTE MONOCYTE [1]: 172.17 CELLS/uL
ABSOLUTE SEGMENTED NEUTROPHIL [1]: 1186.67 CELLS/uL
BASOPHIL [1]: 0%
EOSINOPHIL [1]: 0%
ERYTHROCYTE COUNT [1]: 5.87 x10E6/uL
HEMATOCRIT [1]: 36.87%
HEMOGLOBIN [1]: 14.03 G/DL
LEUKOCYTE COUNT [1]: 12.45 x10E3/uL
LYMPHOCYTE [1]: 88.67%
MEAN CORPUSCULAR HEMOGLOBIN [1]: 23.93 pg
MEAN CORPUSCULAR HEMOGLOBIN CONCENTRATION [1]: 38.1 G/DL
MEAN CORPUSCULAR VOLUME [1]: 62.73 fL
MONOCYTE [1]: 1.5%
NEUTROPHIL [1]: 9.83%
NUCLEATED RED BLOOD CELLS [1]: 0 /100WBC
PLATELET COUNT [1]: 1150.33 x10E3/uL
ALANINE AMINOTRANSFERASE [1]: 67.17 u/L
ALBUMIN [1]: 4.03 G/DL
ALKALINE PHOSPHATASE [1]: 462.5 u/L
ASPARTATE AMINOTRANSFERASE [1]: 88 u/L
BLOOD UREA NITROGEN [1]: 13.17 mg/dL
CARBON DIOXIDE [1]: 29.33 mmol/L
CHLORIDE [1]: 101 MEQ/L
CHOLESTEROL [1]: 69.17 mg/dL
CREATINE PHOSPHOKINASE [1]: 292.5 u/L
CREATININE [1]: 0.17 mg/dL
GLUCOSE [1]: 167.5 mg/dL
LACTATE DEHYDROGENASE [1]: 198.5 u/L
LIPASE [1]: 10.67 u/L
PHOSPHORUS [1]: 11.73 mg/dL
POTASSIUM [1]: 5.91 MEQ/L
SODIUM [1]: 143.3 MEQ/L
TOTAL BILIRUBIN [1]: 0.18 mg/dL
TOTAL PROTEIN [1]: 5.7 G/DL
URIC ACID [1]: 1.3 mg/dL
ABSOLUTE BASOPHIL [2]: 0 CELLS/uL
ABSOLUTE EOSINOPHIL [2]: 64.33 CELLS/uL
ABSOLUTE LYMPHOCYTE [2]: 12494.67 CELLS/uL
ABSOLUTE MONOCYTE [2]: 117 CELLS/uL
ABSOLUTE SEGMENTED NEUTROPHIL [2]: 1340.67 CELLS/uL
BASOPHIL [2]: 0%
EOSINOPHIL [2]: 0.33%
ERYTHROCYTE COUNT [2]: 5.82 x10E6/uL
HEMATOCRIT [2]: 36.97%
HEMOGLOBIN [2]: 14.18 G/DL
LEUKOCYTE COUNT [2]: 14.02 x10E3/uL
LYMPHOCYTE [2]: 89%
MEAN CORPUSCULAR HEMOGLOBIN [2]: 24.42 pg
MEAN CORPUSCULAR HEMOGLOBIN CONCENTRATION [2]: 38.4 G/DL
MEAN CORPUSCULAR VOLUME [2]: 63.52 fL
MONOCYTE [2]: 0.83%
NEUTROPHIL [2]: 9.83%
NUCLEATED RED BLOOD CELLS [2]: 0 /100WBC
PLATELET COUNT [2]: 1097.83 x10E3/uL
ALANINE AMINOTRANSFERASE [2]: 58.83 u/L
ALBUMIN [2]: 3.92 G/DL
ALKALINE PHOSPHATASE [2]: 414.17 u/L
ASPARTATE AMINOTRANSFERASE [2]: 89.17 u/L
BLOOD UREA NITROGEN [2]: 16.83 mg/dL
CARBON DIOXIDE [2]: 29.17 mmol/L
CHLORIDE [2]: 100.33 MEQ/L
CHOLESTEROL [2]: 54.5 mg/dL
CREATINE PHOSPHOKINASE [2]: 386.17 u/L
CREATININE [2]: 0.23 mg/dL
GLUCOSE [2]: 184.17 mg/dL
LACTATE DEHYDROGENASE [2]: 229.17 u/L
LIPASE [2]: 10.83 u/L
PHOSPHORUS [2]: 10.88 mg/dL
POTASSIUM [2]: 5.97 MEQ/L
SODIUM [2]: 142.2 MEQ/L
TOTAL BILIRUBIN [2]: 0.12 mg/dL
TOTAL PROTEIN [2]: 5.63 G/DL
URIC ACID [2]: 1.55 mg/dL
ABSOLUTE BASOPHIL [3]: 0 CELLS/uL
ABSOLUTE EOSINOPHIL [3]: 173.67 CELLS/uL
ABSOLUTE LYMPHOCYTE [3]: 11546 CELLS/uL
ABSOLUTE MONOCYTE [3]: 53.33 CELLS/uL
ABSOLUTE SEGMENTED NEUTROPHIL [3]: 1927 CELLS/uL
BASOPHIL [3]: 0%
EOSINOPHIL [3]: 1.33%
ERYTHROCYTE COUNT [3]: 5.84 x10E6/uL
HEMATOCRIT [3]: 36.37%
HEMOGLOBIN [3]: 14.03 G/DL
LEUKOCYTE COUNT [3]: 13.7 x10E3/uL
LYMPHOCYTE [3]: 84%
MEAN CORPUSCULAR HEMOGLOBIN [3]: 24.03 pg
MEAN CORPUSCULAR HEMOGLOBIN CONCENTRATION [3]: 38.6 G/DL
MEAN CORPUSCULAR VOLUME [3]: 62.27 fL
MONOCYTE [3]: 0.33%
NEUTROPHIL [3]: 14.33%
NUCLEATED RED BLOOD CELLS [3]: 0 /100WBC
PLATELET COUNT [3]: 1088.67 x10E3/uL
ALANINE AMINOTRANSFERASE [3]: 64 u/L
ALBUMIN [3]: 3.97 G/DL
ALKALINE PHOSPHATASE [3]: 434.67 u/L
ASPARTATE AMINOTRANSFERASE [3]: 108.33 u/L
BLOOD UREA NITROGEN [3]: 14 mg/dL
CARBON DIOXIDE [3]: 23 mmol/L
CHLORIDE [3]: 102.33 MEQ/L
CHOLESTEROL [3]: 66.33 mg/dL
CREATINE PHOSPHOKINASE [3]: 588 u/L
CREATININE [3]: 0.19 mg/dL
GLUCOSE [3]: 171.67 mg/dL
LACTATE DEHYDROGENASE [3]: 260 u/L
LIPASE [3]: 9.67 u/L
PHOSPHORUS [3]: 12.87 mg/dL
POTASSIUM [3]: 6.31 MEQ/L
SODIUM [3]: 141.93 MEQ/L
TOTAL BILIRUBIN [3]: 0.13 mg/dL
TOTAL PROTEIN [3]: 5.57 G/DL
URIC ACID [3]: 1.83 mg/dL
